Experiments:
angiotensinogen = assay: Liver estrogeneity (marker angiotensinogen) in ovariectomized rats; type: in vivo, rat; settings: oral administration
Experimental: (§1) Adult Wistar rats were ovariectomized 14 days after this operation for the study of the substances according to the invention. A treatment extended over 3 days (days 1-3); on day 4 after the animals were sacrificed, the recovery of plasma for hormone-analytical and clinical-chemical determinations and the determination of uterus weights were carried out. In satellite tests, correspondingly conditioned animals were sacrificed and samples were taken of their blood after one-time treatment and at other times (see Table 1 for determining estradiol and estrone in the plasma).

erythrocytes [1] = assay: Displacement of estradiol-3-sulfamate from the erythrocyte bond (relative binding affinity); design: species or system human; settings: for RBA to Erythrocytes: human blood, displacement of 14C-labeled estradiol sulfamate; for bond to erythrocytes (in words): m-substituted versus p-substituted compounds
Experimental: The SO2—NTH2 group of the substances according to the invention can result in a concentration in erythrocytes by binding to carboanhydrases. The displacement of estradiol-3-sulfamate from the erythrocyte bond by test substances is measured.
Test preparation: Human blood is mixed with a mixture that consists of ^14C-labeled and unlabeled estradiol sulfamate. The erythrocytes are saturated at the selected working point, and the distribution in plasma/erythrocytes is 40:60. A second blood sample is mixed with a mixture that consists of ^14C-labeled estradiol sulfamate and unlabeled test substance. The relative binding affinity is calculated from the proportion of ^14C-labeled estradiol sulfamate in plasma: higher proportion=strong displacement of ^14C-estradiol sulfamate from the erythrocytes by the test substance=high binding affinity of the test substances to the erythrocytes.

ovariectomized rats = assay: Induction of uterus growth in ovariectomized rats, oral treatment days 1-3; type: in vivo, rat; settings: oral administration
Experimental: as §1
In FIG. 1, the induction of uterus growth in ovariectomized rats is depicted. The treatment is carried out orally from day 1 to the 3rd day, and then the autopsy is carried out on the 4th day. A maximum uterus growth predominantly at 30 μg/animal/day is shown.

Human Carboanhydrase I = Human Carboanhydrase I (Homo sapiens, UniProt P00915); assay: Inhibition of carboanhydrase I (CO2 hydration); type: biochemical; settings: read-out: CAI IC50
Sequence of Human Carboanhydrase I (P00915 whole entry): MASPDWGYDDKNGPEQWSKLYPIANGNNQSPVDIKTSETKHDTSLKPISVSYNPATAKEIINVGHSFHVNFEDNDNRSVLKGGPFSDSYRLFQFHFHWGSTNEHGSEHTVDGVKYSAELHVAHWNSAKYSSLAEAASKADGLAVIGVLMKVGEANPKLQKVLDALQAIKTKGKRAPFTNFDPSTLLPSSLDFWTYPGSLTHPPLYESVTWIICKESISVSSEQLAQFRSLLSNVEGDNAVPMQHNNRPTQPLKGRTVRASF
Experimental: Test preparation: A constant CO2 stream is directed by a buffer that was mixed with carboanhydrase I. The time that is required to reduce the pH within defined limits is a measuring parameter. This parameter reflects the formation of H2CO3 in the medium. IC50 inhibiting values are determined by test substances being pipetted into the test preparation.

erythrocytes [2] = assay: Determination of the erythrocyte/plasma ratio of the substance; type: in vitro ADME; settings: fresh blood; tracer use for compound 1 or 9, otherwise non-radioactive
Experimental: Determination of the substance concentration in the erythrocyte/plasma ratio (tracer use):
Fresh blood is incubated with a defined amount of tracer compound of compound 1 or 9. After the erythrocytes are separated, the measured radioactivity in the erythrocytes is put into a ratio with the measured radioactivity in the plasma.
Determination of the erythrocyte/plasma ratio (non-radioactive):
Freshly-obtained, heparinized blood is mixed with a defined amount of test substance. The concentration in the plasma obtained therefrom is measured. The erythrocyte/plasma ratio is calculated from the measured concentration of the total substance in the plasma and the concentration that is used.

[3] = Estradiol (E2) and estrone (E1) levels in plasma of rats after one-time oral administration; type: in vivo, rat
Experimental: as §1

SMILES	hepatic estrogenic action, marker angiotensinogen (in words) (angiotensinogen)	RBA to Erythrocytes (erythrocytes [1])	bond to erythrocytes (in words) (erythrocytes [1])	estrogenic activity in the uterus / uterus growth (in words) (ovariectomized rats)	IC50 (Human Carboanhydrase I) [nM]	Distribution Ratio of the Substance to Erythrocytes/Plasma (erythrocytes [2])	oral availability and estrogeneity compared with the p-substituted compound (in words) [3]	increase of mother estrogen (estradiol) on oral administration (in words) ([3]; rats)
C#C[C@]1(O)CC[C@H]2[C@@H]3CCc4cc(O)ccc4[C@H]3CC[C@@]21C [ethinyl estradiol, 17α-ethinyl estradiol, reference compound]	significant increase in angiotensinogen							
C[C@]12CC[C@@H]3c4ccc(O)cc4CC[C@H]3[C@@H]1CC[C@@H]2OC(=O)c1cccc(S(N)(=O)=O)c1 [Compound 9, 3-Hydroxyestra-1,3,5(10)-trien-17β-yl 3′-sulfamoylbenzoate]		0.18	weaker bonds	enhanced in comparison to estradiol	380	4	higher oral availability and estrogeneity	very strong increase
C[C@]12CC[C@@H]3c4ccc(O)cc4CC[C@H]3[C@@H]1CC[C@@H]2OC(=O)c1cc(S(N)(=O)=O)c(Cl)cc1Cl [Compound 7, 3-Hydroxyestra-1,3,5(10)-trien-17β-yl 2′,4′-dichloro-5′-sulfamoylbenzoate]		0.40	weaker bonds		500	5		
C[C@]12CC[C@@H]3c4ccc(OS(N)(=O)=O)cc4CC[C@H]3[C@@H]1CC[C@@H]2O [Estradiol-3-sulfamate, reference compound]		100			157 ± 10.6	49		
C[C@]12CC[C@@H]3c4ccc(O)cc4CC[C@H]3[C@@H]1CC[C@@H]2OC(=O)c1ccc(S(N)(=O)=O)cc1 [Compound 1, 3-Hydroxyestra-1,3,5(10)-trien-17β-yl 4′-sulfamoylbenzoate]	much lesser action on estrogen-modulated liver functions	32	very strong bond	superior action on the uterus growth	190	7.7		
